These compounds were tested against T1, recombinant human pancreatic GLK (Homo sapiens, UniProt P35557) (assay: biochemical).
T1 sequence (P35557 1-465): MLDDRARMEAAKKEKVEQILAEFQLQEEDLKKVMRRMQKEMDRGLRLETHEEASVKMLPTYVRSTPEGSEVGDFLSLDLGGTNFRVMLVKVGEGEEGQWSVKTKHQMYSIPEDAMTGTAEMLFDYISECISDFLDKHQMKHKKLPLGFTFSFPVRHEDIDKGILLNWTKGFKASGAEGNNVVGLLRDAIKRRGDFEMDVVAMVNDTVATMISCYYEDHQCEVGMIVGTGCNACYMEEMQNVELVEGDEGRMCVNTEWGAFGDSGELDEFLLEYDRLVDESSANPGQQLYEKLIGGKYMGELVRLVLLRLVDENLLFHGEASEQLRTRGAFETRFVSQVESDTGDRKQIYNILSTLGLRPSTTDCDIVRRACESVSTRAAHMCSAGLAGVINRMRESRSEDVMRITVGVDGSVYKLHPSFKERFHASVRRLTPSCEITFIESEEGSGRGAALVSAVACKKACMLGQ

`C[C@H](CO)OC[C@H](Oc1ncnc2c1cnn2-c1c(Cl)cccc1C#N)C(=O)Nc1ccccn1` [Example 231, (2S)-2-[1-(2-chloro-6-cyano-phenyl)pyrazolo[3,4-d]pyrimidin-4-yl]oxy-3-[(1R)-2-hydroxy-1-methyl-ethoxy]-N-(2-pyridyl)propanamide] and `Cc1ccc(NC(=O)[C@H](CO[C@H](C)CO)Oc2ncnc3c2cnn3-c2c(Cl)cccc2C#N)nc1` [Example 175, (2S)-2-(1-(2-chloro-6-cyanophenyl)-1H-pyrazolo[3,4-d]pyrimidin-4-yloxy)-3-((R)-1-hydroxypropan-2-yloxy)-N-(5-methylpyridin-2-yl)propanamide] are within 1.5-fold of each other in EC50: 260 nM for the first, 270 nM for the second.

`CC(C)OC[C@H](Oc1ncnc2c1cnn2-c1ncccc1Cl)C(=O)Nc1ccc(C#N)cn1` [Example 127j, (2S)-2-[1-(3-chloro-2-pyridyl)pyrazolo[4,5-e]pyrimidin-4-yl]oxy-N-(5-cyano-2-pyridyl)-3-isopropoxy-propanamide] and `CC(C)OC[C@H](Oc1ncnc2c1cnn2-c1ncccc1Cl)C(=O)Nc1ccc(F)cn1` [Example 127l, (2S)-2-[1-(3-chloro-2-pyridyl)pyrazolo[4,5-e]pyrimidin-4-yl]oxy-N-(5-fluoro-2-pyridyl)-3-isopropoxy-propanamide] are within 1.5-fold of each other in EC50: 580 nM for the first, 500 nM for the second.

Going from `O=C(Nc1ccc(F)cn1)[C@H](CCO)Oc1ncnc2c1cnn2-c1ncccc1Cl` [Example 143d, (2S)-2-[1-(3-chloro-2-pyridyl)pyrazolo[4,5-e]pyrimidin-4-yl]oxy-N-(5-fluoro-2-pyridyl)-4-hydroxy-butanamide] to `Cc1ccc(NC(=O)[C@H](COC[C@H](C)O)Oc2ncnc3c2cnn3-c2ncccc2Cl)nc1` [Example 204, (2S)-2-(1-(3-chloropyridin-2-yl)-1H-pyrazolo[3,4-d]pyrimidin-4-yloxy)-3-((S)-2-hydroxypropoxy)-N-(5-methylpyridin-2-yl)propanamide], the EC50 rises from 590 nM to 1300 nM (2.2-fold). The first is the more potent here.

`O=C(Nc1ccc(Cl)cn1)[C@H](COCCO)Oc1ncnc2c1cnn2-c1cccc(Cl)c1Cl` [Example 202, (2S)—N-(5-chloropyridin-2-yl)-2-(1-(2,3-dichlorophenyl)-1H-pyrazolo[3,4-d]pyrimidin-4-yloxy)-3-(2-hydroxyethoxy)propanamide] and `N#Cc1cccc(Cl)c1-n1ncc2c(O[C@@H](COCCO)C(=O)Nc3ccc(Cl)cn3)ncnc21` [Example 174, (2S)-2-(1-(2-chloro-6-cyanophenyl)-1H-pyrazolo[3,4-d]pyrimidin-4-yloxy)-N-(5-chloropyridin-2-yl)-3-(2-hydroxyethoxy)propanamide] are within 1.5-fold of each other in EC50: 340 nM for the first, 230 nM for the second.

First: COCC(Sc1ncnc2c1cnn2-c1ccccc1Cl)C(=O)Nc1ccc(C)cn1 (stereo not shown) [Example 62, 2-{[1-(2-Chlorophenyl)-1H-pyrazolo[3,4-d]pyrimidin-4-yl]thio}-3-methoxy-N-(5-methylpyridin-2-yl)propanamide]
Second: CCCCCCC(Sc1ncnc2c1cnn2-c1ccccc1Cl)C(=O)Nc1ccc(C)cn1 (stereo not shown) [2-[1-(2-chlorophenyl)pyrazolo[4,5-e]pyrimidin-4-yl]sulfanyl-N-(5-methyl-2-pyridyl)octanamide]
The EC50 of the first is lower: 12000 nM for the first, greater than 100000 nM for the second.

Compared with `Cc1ccc(F)cc1-n1ncc2c(O[C@@H](COCCO)C(=O)Nc3ccc(Cl)cn3)ncnc21` [Example 180, (2S)—N-(5-chloropyridin-2-yl)-2-(1-(5-fluoro-2-methylphenyl)-1H-pyrazolo[3,4-d]pyrimidin-4-yloxy)-3-(2-hydroxyethoxy)propanamide], `O=C(Nc1ccc(F)cn1)[C@H](COCCO)Oc1ncnc2c1cnn2-c1c(F)cccc1Cl` [Example 244, (2S)-2-[1-(2-chloro-6-fluoro-phenyl)pyrazolo[3,4-d]pyrimidin-4-yl]oxy-N-(5-fluoro-2-pyridyl)-3-(2-hydroxyethoxy)propanamide] is 2.8-fold lower in EC50: 940 nM for the first, 330 nM for the second. The second is the more potent here.

`COc1ccccc1-n1ncc2c(O[C@@H](CCS(C)(=O)=O)C(=O)Nc3ccc(C)cn3)ncnc21` [Example 12, (S)-2-{[1-(2-methoxyphenyl)-1H-pyrazolo[3,4-d]pyrimidin-4-yl]oxy}-N-(5-methylpyridin-2-yl)-4-(methylsulfonyl)butanamide] and `COc1ccccc1-n1ncc2c(OC(CCS(C)(=O)=O)C(=O)Nc3ccc(C)cn3)ncnc21` (stereo not shown) [Example 10, 2-{[1-(2-methoxyphenyl)-1H-pyrazolo[3,4-d]pyrimidin-4-yl]oxy}-N-(5-methylpyridin-2-yl)-4-(methylsulfonyl)butanamide] are within 1.5-fold of each other in EC50: 2400 nM for the first, 2700 nM for the second.

First: COCC[C@@H](Oc1ncnc2c1cnn2-c1ccccc1OC)C(=O)Nc1nc(C)cs1 [Example 36, (R)-4-Methoxy-2-{[1-(2-methoxyphenyl)-1H-pyrazolo[3,4-d]pyrimidin-4-yl]oxy}-N-(4-methyl-1,3-thiazol-2-yl)butanamide]
Second: COC[C@H](Oc1ncnc2c1cnn2-c1ccccc1OC)C(=O)Nc1ccc(C)cn1 [Example 6, (S)-3-methoxy-2-{[1-(2-methoxyphenyl)-1H-pyrazolo[3,4-d]pyrimidin-4-yl]oxy}-N-(5-methylpyridin-2-yl)propanamide]
The EC50 of the first is higher: no less than 100000 nM for the first, 680 nM for the second.

Going from `COCC[C@@H](Oc1ncnc2c1cnn2-c1cccc(OC)c1)C(=O)Nc1ccc(C)cn1` [Example 14, (R)-4-methoxy-2-{[1-(3-methoxyphenyl)-1H-pyrazolo[3,4-d]pyrimidin-4-yl]oxy}-N-(5-methylpyridin-2-yl)butanamide] to `COCCC(Oc1ncnc2c1cnn2-c1cccc(C)c1)C(=O)Nc1ccc(C)cn1` (stereo not shown) [Example 31, 4-Methoxy-2-{[1-(3-methylphenyl)-1H-pyrazolo[3,4-d]pyrimidin-4-yl]oxy}-N-(5-methylpyridin-2-yl)butanamide], the EC50 falls from no less than 100000 nM to 350 nM.

Compared with `Cc1c(C#N)cccc1-n1ncc2c(O[C@@H](COCCO)C(=O)Nc3ccc(C#N)cn3)ncnc21` [Example 207, (2S)-2-(1-(3-cyano-2-methylphenyl)-1H-pyrazolo[3,4-d]pyrimidin-4-yloxy)-N-(5-cyanopyridin-2-yl)-3-(2-hydroxyethoxy)propanamide], `N#Cc1ccc(NC(=O)[C@H](COCCO)Oc2ncnc3c2cnn3-c2c(Cl)cccc2Cl)nc1` [Example 235, (2S)—N-(5-cyano-2-pyridyl)-2-[1-(2,6-dichlorophenyl)pyrazolo[3,4-d]pyrimidin-4-yl]oxy-3-(2-hydroxyethoxy)propanamide] is 12-fold lower in EC50: 5000 nM for the first, 400 nM for the second. The second is the more potent here.

`COC[C@H](Oc1ncnc2c1cnn2-c1ccccc1Cl)C(=O)Nc1ccc(C)cn1` [Example 87, (2S)-2-(1-(2-chlorophenyl)-1H-pyrazolo[3,4-d]pyrimidin-4-yloxy)-3-methoxy-N-(5-methylpyridin-2-yl)propanamide] and `COC[C@@H](C)OC[C@H](Oc1ncnc2c1cnn2-c1ccccc1Cl)C(=O)Nc1ccc(C)cn1` [Example 153, (2S)-2-(1-(2-chlorophenyl)-1H-pyrazolo[3,4-d]pyrimidin-4-yloxy)-3-((R)-1-methoxypropan-2-yloxy)-N-(5-methylpyridin-2-yl)propanamide] are within 1.5-fold of each other in EC50: 320 nM for the first, 280 nM for the second.

Compared with `COc1ccccc1-n1ncc2c(O[C@H](C)C(=O)Nc3ccc(C)cn3)ncnc21` [(R)-2-[1-(2-methoxyphenyl)pyrazolo[4,5-e]pyrimidin-4-yl]oxy-N-(5-methyl-2-pyridyl)propanamide], `Cc1ccc(NC(=O)C(Oc2ncnc3c2cnn3-c2ccccc2Cl)C(C)C)nc1` (stereo not shown) [Example 83, 2-(1-(2-chlorophenyl)-1H-pyrazolo[3,4-d]pyrimidin-4-yloxy)-3-methyl-N-(5-methylpyridin-2-yl)butanamide] is lower in EC50: greater than 100000 nM for the first, 870 nM for the second.

First: Cc1ccc(NC(=O)C(CCS(C)(=O)=O)Oc2ncnc3c2cnn3-c2ccccc2Cl)nc1 (stereo not shown) [Example 9, 2-{[1-(2-chlorophenyl)-1H-pyrazolo[3,4-d]pyrimidin-4-yl]oxy}-N-(5-methylpyridin-2-yl)-4-(methylsulfonyl)butanamide]
Second: Cc1ccc(NC(=O)C(CCS(C)(=O)=O)Oc2ncnc3c2cnn3C)nc1 (stereo not shown) [2-(1-methylpyrazolo[4,5-e]pyrimidin-4-yl)oxy-N-(5-methyl-2-pyridyl)-4-methylsulfonyl-butanamide]
The EC50 of the first is lower: 520 nM for the first, greater than 100000 nM for the second. The first is the more potent here.

First: Cc1ccc(NC(=O)[C@H](COC(C)C)Oc2ncnc3c2cnn3-c2ncccc2Cl)nn1 [Example 127, (2S)-2-[1-(3-chloro-2-pyridyl)pyrazolo[4,5-e]pyrimidin-4-yl]oxy-3-isopropoxy-N-(6-methylpyridazin-3-yl)propanamide]
Second: CCOC[C@H](Oc1ncnc2c1cnn2-c1ncccc1Cl)C(=O)Nc1ccc(C#N)cn1 [Example 127c, (2S)-2-[1-(3-chloro-2-pyridyl)pyrazolo[4,5-e]pyrimidin-4-yl]oxy-N-(5-cyano-2-pyridyl)-3-ethoxy-propanamide]
The EC50 of the first is 9-fold higher: 6000 nM for the first, 670 nM for the second. The second is the more potent here.

`C[C@H](CO)OC[C@H](Oc1ncnc2c1cnn2-c1c(Cl)cccc1C#N)C(=O)Nc1ccc(Cl)cn1` [Example 216, (2S)-2-[1-(2-chloro-6-cyano-phenyl)pyrazolo[4,5-e]pyrimidin-4-yl]oxy-N-(5-chloro-2-pyridyl)-3-[(1R)-2-hydroxy-1-methyl-ethoxy]propanamide] and `N#Cc1ccc(NC(=O)[C@H](CN2CC(O)C2)Oc2ncnc3c2cnn3-c2c(Cl)cccc2Cl)nc1` [Example 234, (2S)—N-(5-cyano-2-pyridyl)-2-[1-(2,6-dichlorophenyl)pyrazolo[3,4-d]pyrimidin-4-yl]oxy-3-(3-hydroxyazetidin-1-yl)propanamide] are within 1.5-fold of each other in EC50: 163 nM for the first, 210 nM for the second.

In the case of `CCOC[C@H](Oc1ncnc2c1cnn2-c1ncccc1Cl)C(=O)Nc1ccccn1` [Example 127e, (2S)-2-[1-(3-chloro-2-pyridyl)pyrazolo[4,5-e]pyrimidin-4-yl]oxy-3-ethoxy-N-(2-pyridyl)propanamide], the EC50 is reported as 550 nM.

Source: patent US8143263B2, “Therapeutic agents” (Astrazeneca AB, priority 2008, dated 2012)
